From patent US20170020909A1, “METHODS OF TREATING GLAUCOMA USING AMP-ACTIVATED PROTEIN KINASE (AMPK) ACTIVATORS” (Massachusetts Eye and Ear Infirmary, priority 2014, published 2017)

Test system: SPARC
Assay: Immunoblot of SPARC in conditioned media of human TM cells
Assay type: cell-based
Settings: 24 hours
Description: FIGS. 5A-E. AICAR suppresses ECM proteins in primary human TM cells under basal and TGF-β2 stimulatory conditions. (A) Representative immunoblots of ECM proteins from conditioned media (CM) of human TM cells treated for 24 hours with PBS vehicle or 0.5 mM AICAR and (B) integrated band intensities calculated from those immunoblots. (C) Representative immunoblots of ECM proteins from CM of human TM cells under stimulation with 2.5 ng/mL TGF-β2. Cells were pre-incubated for 1 hour with PBS or 0.5 mM AICAR prior to full 24-hour treatment. (D) Mean integrated band intensities. Data in panels B and D are expressed as mean±SEM (*p<0.05 vs. PBS vehicle by student t-test; n=5-7). (E) Representative 10% acrylamide gels stained with Coomassie Brilliant Blue as a loading control. […]
At the conclusion of each experiment for matricellular and ECM protein detection, conditioned media (CM) from TM cell cultures was harvested and centrifuged at 5000 rpm for 10 minutes at 4° C. The supernatant was then concentrated (Amicon Ultra-4 Filter Unit, 10 kDa; Millipore, Milford, Mass.), and protein content quantified using the DC Protein Assay kit adhering to manufacturer's protocols (Bio-Rad, Hercules, Calif.). […] Samples were then centrifuged at 14,000 rpm for 15 minutes at 4° C. and protein content quantified. […]

Compound: NC(=O)c1ncn([C@@H]2O[C@H](CO)[C@@H](O)[C@H]2O)c1N [AICAR, 5-Aminoimidazole-4-carboxamide riboside]
- change in SPARC (mean integrated band intensity) (0.5 mM AICAR vs PBS vehicle, basal): no change
- decrease in SPARC level (0.5 mM AICAR, under TGF-β2 stimulation with 2.5 ng/mL): 64%
